Results published in publication PMC9299836 (eLife, 2022).

Target: mGluR2 (Mus musculus, UniProt Q14BI2, A548F)
Test: smFRET of azi-CRD: cross-correlation of donor and acceptor intensities (CRD dynamics) and HMM transition density plots;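 further: single detergent-solubilized receptors captured on antibody-coated flow cells via C-terminal FLAG-tag, imaged by smFRET, donor and acceptor intensity traces from three independent biological replicates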

Sequence of mGluR2 (Q14BI2 19-872 A548F): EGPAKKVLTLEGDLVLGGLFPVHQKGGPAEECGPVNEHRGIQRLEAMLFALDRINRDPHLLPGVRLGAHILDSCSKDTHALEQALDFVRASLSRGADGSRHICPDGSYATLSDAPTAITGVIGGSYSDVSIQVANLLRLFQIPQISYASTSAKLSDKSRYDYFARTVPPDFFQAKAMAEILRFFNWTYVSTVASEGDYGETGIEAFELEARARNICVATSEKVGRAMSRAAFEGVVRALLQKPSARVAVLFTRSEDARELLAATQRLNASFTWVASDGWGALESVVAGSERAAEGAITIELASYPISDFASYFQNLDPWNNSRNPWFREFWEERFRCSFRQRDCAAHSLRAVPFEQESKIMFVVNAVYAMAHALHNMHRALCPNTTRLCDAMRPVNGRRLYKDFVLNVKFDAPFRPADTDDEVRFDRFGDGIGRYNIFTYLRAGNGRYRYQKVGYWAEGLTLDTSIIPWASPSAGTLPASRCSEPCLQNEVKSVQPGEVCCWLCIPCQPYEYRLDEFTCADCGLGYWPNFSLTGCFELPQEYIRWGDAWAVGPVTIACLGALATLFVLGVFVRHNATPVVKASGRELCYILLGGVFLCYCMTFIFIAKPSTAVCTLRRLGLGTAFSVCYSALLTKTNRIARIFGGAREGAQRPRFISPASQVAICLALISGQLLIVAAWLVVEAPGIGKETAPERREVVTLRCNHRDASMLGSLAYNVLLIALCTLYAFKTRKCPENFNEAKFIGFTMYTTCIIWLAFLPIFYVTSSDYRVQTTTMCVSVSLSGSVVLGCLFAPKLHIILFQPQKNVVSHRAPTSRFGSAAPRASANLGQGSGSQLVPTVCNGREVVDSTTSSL

Cc1c(OCc2cccc(-c3ccc(C(=O)O)cc3)c2)cc2c(c1C)C(=O)C(C1CCCC1)C2 (centres unmarked) [BINA]
Cross Correlation, Mean (0μM Glutamate + GPT/Pyruvate + 10μM BINA, Time 0 s, N 3): -0.309
Cross Correlation, Mean (0μM Glutamate + GPT/Pyruvate + 10μM BINA, Time 0.05 s, N 3): -0.1732
Cross Correlation, Mean (0μM Glutamate + GPT/Pyruvate + 10μM BINA, Time 0.1 s, N 3): -0.1405
Cross Correlation, Mean (0μM Glutamate + GPT/Pyruvate + 10μM BINA, Time 0.15 s, N 3): -0.1268
Cross Correlation, Mean (0μM Glutamate + GPT/Pyruvate + 10μM BINA, Time 0.2 s, N 3): -0.1138
Cross Correlation, Mean (0μM Glutamate + GPT/Pyruvate + 10μM BINA, Time 0.25 s, N 3): -0.1079
Cross Correlation, Mean (0μM Glutamate + GPT/Pyruvate + 10μM BINA, Time 0.3 s, N 3): -0.1007
Cross Correlation, Mean (0μM Glutamate + GPT/Pyruvate + 10μM BINA, Time 0.35 s, N 3): -0.09667
Cross Correlation, Mean (0μM Glutamate + GPT/Pyruvate + 10μM BINA, Time 0.4 s, N 3): -0.08889
Cross Correlation, Mean (0μM Glutamate + GPT/Pyruvate + 10μM BINA, Time 0.45 s, N 3): -0.08933
Cross Correlation, Mean (0μM Glutamate + GPT/Pyruvate + 10μM BINA, Time 0.5 s, N 3): -0.08286
Cross Correlation, Mean (0μM Glutamate + GPT/Pyruvate + 10μM BINA, Time 0.55 s, N 3): -0.07956
Cross Correlation, Mean (0μM Glutamate + GPT/Pyruvate + 10μM BINA, Time 0.6 s, N 3): -0.07731
Cross Correlation, Mean (0μM Glutamate + GPT/Pyruvate + 10μM BINA, Time 0.65 s, N 3): -0.07407
Cross Correlation, Mean (0μM Glutamate + GPT/Pyruvate + 10μM BINA, Time 0.7 s, N 3): -0.07365
Cross Correlation, Mean (0μM Glutamate + GPT/Pyruvate + 10μM BINA, Time 0.75 s, N 3): -0.06697
Cross Correlation, Mean (0μM Glutamate + GPT/Pyruvate + 10μM BINA, Time 0.8 s, N 3): -0.06199
Cross Correlation, Mean (0μM Glutamate + GPT/Pyruvate + 10μM BINA, Time 0.85 s, N 3): -0.06042
Cross Correlation, Mean (0μM Glutamate + GPT/Pyruvate + 10μM BINA, Time 0.9 s, N 3): -0.05216
Cross Correlation, Mean (0μM Glutamate + GPT/Pyruvate + 10μM BINA, Time 0.95 s, N 3): -0.05689
Cross Correlation, Mean (0μM Glutamate + GPT/Pyruvate + 10μM BINA, Time 1 s, N 3): -0.0539
Cross Correlation, Mean (0μM Glutamate + GPT/Pyruvate + 10μM BINA, Time 1.05 s, N 3): -0.05356
Cross Correlation, Mean (0μM Glutamate + GPT/Pyruvate + 10μM BINA, Time 1.1 s, N 3): -0.0518
Cross Correlation, Mean (0μM Glutamate + GPT/Pyruvate + 10μM BINA, Time 1.15 s, N 3): -0.0477
Cross Correlation, Mean (0μM Glutamate + GPT/Pyruvate + 10μM BINA, Time 1.2 s, N 3): -0.04715
Cross Correlation, Mean (0μM Glutamate + GPT/Pyruvate + 10μM BINA, Time 1.25 s, N 3): -0.04267
Cross Correlation, Mean (0μM Glutamate + GPT/Pyruvate + 10μM BINA, Time 1.3 s, N 3): -0.04926
Cross Correlation, Mean (0μM Glutamate + GPT/Pyruvate + 10μM BINA, Time 1.35 s, N 3): -0.04133
Cross Correlation, Mean (0μM Glutamate + GPT/Pyruvate + 10μM BINA, Time 1.4 s, N 3): -0.03906
Cross Correlation, Mean (0μM Glutamate + GPT/Pyruvate + 10μM BINA, Time 1.45 s, N 3): -0.0385
Cross Correlation, Mean (0μM Glutamate + GPT/Pyruvate + 10μM BINA, Time 1.5 s, N 3): -0.035
Cross Correlation, Mean (0μM Glutamate + GPT/Pyruvate + 10μM BINA, Time 1.55 s, N 3): -0.03506
Cross Correlation, Mean (0μM Glutamate + GPT/Pyruvate + 10μM BINA, Time 1.6 s, N 3): -0.03291
Cross Correlation, Mean (0μM Glutamate + GPT/Pyruvate + 10μM BINA, Time 1.65 s, N 3): -0.03291
Cross Correlation, Mean (0μM Glutamate + GPT/Pyruvate + 10μM BINA, Time 1.7 s, N 3): -0.03331
Cross Correlation, Mean (0μM Glutamate + GPT/Pyruvate + 10μM BINA, Time 1.75 s, N 3): -0.03095
Cross Correlation, Mean (0μM Glutamate + GPT/Pyruvate + 10μM BINA, Time 1.8 s, N 3): -0.02869
Cross Correlation, Mean (0μM Glutamate + GPT/Pyruvate + 10μM BINA, Time 1.85 s, N 3): -0.03476
Cross Correlation, Mean (0μM Glutamate + GPT/Pyruvate + 10μM BINA, Time 1.9 s, N 3): -0.02485
Cross Correlation, Mean (0μM Glutamate + GPT/Pyruvate + 10μM BINA, Time 1.95 s, N 3): -0.02573
Cross Correlation, Mean (0μM Glutamate + GPT/Pyruvate + 10μM BINA, Time 2 s, N 3): -0.0316
Cross Correlation, Mean (0μM Glutamate + GPT/Pyruvate + 10μM BINA, Time 2.05 s, N 3): -0.03349
Cross Correlation, Mean (0μM Glutamate + GPT/Pyruvate + 10μM BINA, Time 2.1 s, N 3): -0.02361
Cross Correlation, Mean (0μM Glutamate + GPT/Pyruvate + 10μM BINA, Time 2.15 s, N 3): -0.02192
Cross Correlation, Mean (0μM Glutamate + GPT/Pyruvate + 10μM BINA, Time 2.2 s, N 3): -0.02164
Cross Correlation, Mean (0μM Glutamate + GPT/Pyruvate + 10μM BINA, Time 2.25 s, N 3): -0.01683
Cross Correlation, Mean (0μM Glutamate + GPT/Pyruvate + 10μM BINA, Time 2.3 s, N 3): -0.01949
Cross Correlation, Mean (0μM Glutamate + GPT/Pyruvate + 10μM BINA, Time 2.35 s, N 3): -0.01229
Cross Correlation, Mean (0μM Glutamate + GPT/Pyruvate + 10μM BINA, Time 2.4 s, N 3): -0.01405
Cross Correlation, Mean (0μM Glutamate + GPT/Pyruvate + 10μM BINA, Time 2.45 s, N 3): -0.01492
Cross Correlation, Mean (0μM Glutamate + GPT/Pyruvate + 10μM BINA, Time 2.5 s, N 3): -0.01729
Cross Correlation, Mean (0μM Glutamate + GPT/Pyruvate + 10μM BINA, Time 2.55 s, N 3): -0.01573
Cross Correlation, Mean (0μM Glutamate + GPT/Pyruvate + 10μM BINA, Time 2.6 s, N 3): -0.01304
Cross Correlation, Mean (0μM Glutamate + GPT/Pyruvate + 10μM BINA, Time 2.65 s, N 3): -0.01522
Cross Correlation, Mean (0μM Glutamate + GPT/Pyruvate + 10μM BINA, Time 2.7 s, N 3): -0.01589
Cross Correlation, Mean (0μM Glutamate + GPT/Pyruvate + 10μM BINA, Time 2.75 s, N 3): -0.00863
Cross Correlation, Mean (0μM Glutamate + GPT/Pyruvate + 10μM BINA, Time 2.8 s, N 3): -0.00835
Cross Correlation, Mean (0μM Glutamate + GPT/Pyruvate + 10μM BINA, Time 2.85 s, N 3): -0.01318
Cross Correlation, Mean (0μM Glutamate + GPT/Pyruvate + 10μM BINA, Time 2.9 s, N 3): -0.01103
Cross Correlation, Mean (0μM Glutamate + GPT/Pyruvate + 10μM BINA, Time 2.95 s, N 3): -0.01389
Cross Correlation, Mean (Time 0.2 s, 1000μM Glutamate + 10μM BINA, N=3): -0.07372
Cross Correlation, Mean (Time 0.25 s, 1000μM Glutamate + 10μM BINA, N=3): -0.0658
Cross Correlation, Mean (Time 0.3 s, 1000μM Glutamate + 10μM BINA, N=3): -0.06773
Cross Correlation, Mean (Time 0.35 s, 1000μM Glutamate + 10μM BINA, N=3): -0.06255
Cross Correlation, Mean (Time 0.4 s, 1000μM Glutamate + 10μM BINA, N=3): -0.05489
Cross Correlation, Mean (Time 0.45 s, 1000μM Glutamate + 10μM BINA, N=3): -0.05062
Cross Correlation, Mean (Time 0.5 s, 1000μM Glutamate + 10μM BINA, N=3): -0.04608
Cross Correlation, Mean (Time 0.55 s, 1000μM Glutamate + 10μM BINA, N=3): -0.05414
Cross Correlation, Mean (Time 0.6 s, 1000μM Glutamate + 10μM BINA, N=3): -0.0452
Cross Correlation, Mean (Time 0.65 s, 1000μM Glutamate + 10μM BINA, N=3): -0.04488
Cross Correlation, Mean (Time 0.7 s, 1000μM Glutamate + 10μM BINA, N=3): -0.04657
Cross Correlation, Mean (Time 0.75 s, 1000μM Glutamate + 10μM BINA, N=3): -0.03909
Cross Correlation, Mean (Time 0.8 s, 1000μM Glutamate + 10μM BINA, N=3): -0.03858
Cross Correlation, Mean (Time 0.85 s, 1000μM Glutamate + 10μM BINA, N=3): -0.03795
Cross Correlation, Mean (Time 0.9 s, 1000μM Glutamate + 10μM BINA, N=3): -0.04083
Cross Correlation, Mean (Time 0.95 s, 1000μM Glutamate + 10μM BINA, N=3): -0.04226
Cross Correlation, Mean (Time 1 s, 1000μM Glutamate + 10μM BINA, N=3): -0.03681
Cross Correlation, Mean (Time 1.05 s, 1000μM Glutamate + 10μM BINA, N=3): -0.03546
Cross Correlation, Mean (Time 1.1 s, 1000μM Glutamate + 10μM BINA, N=3): -0.03003
Cross Correlation, Mean (Time 1.15 s, 1000μM Glutamate + 10μM BINA, N=3): -0.02551
Cross Correlation, Mean (Time 1.2 s, 1000μM Glutamate + 10μM BINA, N=3): -0.0316
Cross Correlation, Mean (Time 1.25 s, 1000μM Glutamate + 10μM BINA, N=3): -0.02716
Cross Correlation, Mean (Time 1.3 s, 1000μM Glutamate + 10μM BINA, N=3): -0.03167
Cross Correlation, Mean (Time 1.35 s, 1000μM Glutamate + 10μM BINA, N=3): -0.03105
Cross Correlation, Mean (Time 1.4 s, 1000μM Glutamate + 10μM BINA, N=3): -0.03283
Cross Correlation, Mean (Time 1.45 s, 1000μM Glutamate + 10μM BINA, N=3): -0.03008
Cross Correlation, Mean (Time 1.5 s, 1000μM Glutamate + 10μM BINA, N=3): -0.02156
Cross Correlation, Mean (Time 1.55 s, 1000μM Glutamate + 10μM BINA, N=3): -0.02279
Cross Correlation, Mean (Time 1.6 s, 1000μM Glutamate + 10μM BINA, N=3): -0.0244
Cross Correlation, Mean (Time 1.65 s, 1000μM Glutamate + 10μM BINA, N=3): -0.02489
Cross Correlation, Mean (Time 1.7 s, 1000μM Glutamate + 10μM BINA, N=3): -0.02216
Cross Correlation, Mean (Time 1.75 s, 1000μM Glutamate + 10μM BINA, N=3): -0.02536
Cross Correlation, Mean (Time 1.8 s, 1000μM Glutamate + 10μM BINA, N=3): -0.02663
Cross Correlation, Mean (Time 1.85 s, 1000μM Glutamate + 10μM BINA, N=3): -0.0191
Cross Correlation, Mean (Time 1.9 s, 1000μM Glutamate + 10μM BINA, N=3): -0.02267
Cross Correlation, Mean (Time 1.95 s, 1000μM Glutamate + 10μM BINA, N=3): -0.02058
Cross Correlation, Mean (Time 2 s, 1000μM Glutamate + 10μM BINA, N=3): -0.01998
Cross Correlation, Mean (Time 2.05 s, 1000μM Glutamate + 10μM BINA, N=3): -0.02099
Cross Correlation, Mean (Time 2.1 s, 1000μM Glutamate + 10μM BINA, N=3): -0.01699
Cross Correlation, Mean (Time 2.15 s, 1000μM Glutamate + 10μM BINA, N=3): -0.01762
CRD dynamics by cross-correlation of donor and acceptor intensities (azi-CRD, 10 μM modulator, absence of glutamate): increased receptor dynamics
